Data taken from patent publication US7109190B2, “Carbacephem β-lactam antibiotics” (Trine Pharmaceuticals, Inc., priority 2003, dated 2006).
Converted amounts (≈) assume the structure as drawn.

Assays:
[1] = system: MRSA; details: MRSA potency, background prior-art compounds; cited from earlier work
[2] = system: serum protein; details: background prior-art compounds; cited from earlier work
[3] = system: MRSA COL; assay: In vitro MIC by agar dilution against MRSA COL; format: cell-based; details: Staphylococcus aureus; MRSA COL isolate; read-out: MIC (μg/mL) MRSA COL
Description: (§1) The in vitro MIC for bacterial isolates may be obtained in the following manner: a test compound is incorporated into a series of two-fold dilutions in liquified Mueller-hinton agar. Upon solidification, a number of different bacterial strains are spot-inoculated onto the surface of the agar. […] The procedures used in these experiments are generally those standardized by the National Committee for Clinical Laboratory Standards (NCCLS), as set forth in the NCCLS publication entitled “Methods for Dilution Antimicrobial Susceptibility Tests (1991), which is incorporated by reference as if fully set forth herein. The following exemplified such a procedure although it is to be understood that modifications of the procedure may be implemented as required.
(§2) Aliquots of the test compounds are prepared in phosphate buffered saline (PBS) at pH approximately 7.2. Tween 20 or dimethylsulfoxide (DMSO) are added if necessary to solubilize the compound and vortexing, sonicating and gentle heating may also be employed. Typically, the concentration of the stock solution is 10× that of the highest compound concentration to be used. Serial two-fold dilutions are prepared down to the lowest concentration to be tested. Each compound concentration is tested in duplicate. A control plate using a reference drug such as cefotaxime, vancomycin or imipenem is used as a postive control. A negative control plate containing no drug or compound is also prepared.
(§3) A few isolated colonies are retrieved from a pure culture prepared on agar plates and transferred to a tube of nutrient broth and allowed to grow at 35–36° C. until log-phase growth is achieved, usually about 4–6 hours. The broth is then added dropwise to PBS until the turbidity of the suspension matches a 0.5 McFarland standard which is equal to approximately 10^8 cfu/ml.
(§4) The test plates containing the compound dilutions and the control plates are then inoculated with the PBS suspension. The plates are then incubated for 16–20 hours at 35–36° C. The plates are then observed to determine which concentration of the test compound is the MIC.
(§5) It is expected that the compounds will be equally, if not more, potent against other resistant strains of bacteria as well as bacteria which are susceptible to current clinical antibiotics. The range of utility of the compounds herein can easily be established by those skilled in the art using the disclosures herein and all bacteria within the useful range are within the scope of this invention.

[4] = system: human serum; assay: Human serum binding (ultrafiltration, HPLC); format: in vitro ADME
Description: The following procedure may be used to evaluate serum binding: compounds are incubated in serum for 10 min at 37° C. in a shaking water bath. Then a serum ultrafiltrate is obtained by centrifugation of ultra-filtration units (Amicon Centrifree) for, say, 20 minutes at 25° C. Compound content in the ultrafiltrate is quantified by HPLC using standards prepared in blank ultra-filtrate undergoing similar processing.
as §5

[5] = system: MRSA 76; assay: In vitro MIC by agar dilution against MRSA 76; format: cell-based; details: Staphylococcus aureus; MRSA 76 isolate; read-out: MIC (μg/mL) MRSA 76
Description: as §1, §2, §3, §4, §5

SMILES	MIC [3]	Human Serum Binding [4]	MIC [5]	MIC [1]	serum binding [2]
Nc1nc(/C(=N/OCCF)C(=O)N[C@@H]2C(=O)N3C(C(=O)O)=C(Sc4nc5ccc([N+](=O)[O-])cc5s4)CCC23)cs1 (stereo partly drawn) [compound (3)]	–	–	–	4 µg/mL (≈ 6.58 µM)	99.6%
Nc1nc(/C(=N/OCCF)C(=O)N[C@@H]2C(=O)N3C(C(=O)O)=C(Sc4nc5cnccc5s4)CCC23)cs1 (stereo partly drawn) [compound (4)]	–	–	–	64 µg/mL (≈ 114 µM)	36%
Nc1nc(/C(=N/OCCF)C(=O)N[C@@H]2C(=O)N3C(C(=O)O)=C(Sc4nncs4)CCC23)cs1 (stereo partly drawn) [compound (2)]	–	–	–	2 µg/mL (≈ 3.89 µM)	> 99.2%

More lines, main results first:

MIC [3]	Human Serum Binding [4]	MIC [5]	SMILES	MIC [1]	serum binding [2]
1 µg/mL (≈ 1.71 µM)	89.4%	2 µg/mL (≈ 3.42 µM)	NCCSCc1ncccc1SC1=C(C(=O)O)N2C(=O)C(NC(=O)/C(=N\O)c3nc(N)sc3Cl)C2CC1 (stereo not drawn)	–	–
1 µg/mL (≈ 1.93 µM)	68.0%	2 µg/mL (≈ 3.87 µM)	Nc1nnc(SC2=C(C(=O)O)N3C(=O)C(NC(=O)/C(=N\O)c4nc(N)sc4Cl)C3CC2)s1 (stereo not drawn)	–	–
1 µg/mL (≈ 1.71 µM)	74.5%	1 µg/mL (≈ 1.71 µM)	NCCSCc1cnccc1SC1=C(C(=O)O)N2C(=O)C(NC(=O)/C(=N\O)c3nc(N)sc3Cl)C2CC1 (stereo not drawn)	–	–
2 µg/mL (≈ 3.98 µM)	66.9%	2 µg/mL (≈ 3.98 µM)	Nc1nc(/C(=N/O)C(=O)NC2C(=O)N3C(C(=O)O)=C(Sc4nncs4)CCC23)c(Cl)s1 (stereo not drawn)	–	–
